Values after ≈ are worked out from the molar mass of the structure shown.
Columns and labels:
Aspergillus niger = test: Antifungal activity against Aspergillus niger ATCC-1094 after 72 hrs by broth microdilution method; type: functional; conditions: ATCC-1094, 72 h
Fusarium solani = test: Antifungal activity against Fusarium solani NRRL-13414 after 72 hrs by broth microdilution method; type: functional; conditions: NRRL-13414, 72 h
[Candida] zeylanoides = Antifungal activity against Candida zeylanoides NRLL Y-1774 after 48 hrs by broth microdilution method; type: functional; conditions: Dujonia zeylanoides, NRLL Y-1774, 48 h
Candida parapsilosis = test: Antifungal activity against Candida parapsilosis NRLL Y-12696 after 48 hrs by broth microdilution method; type: functional; conditions: Lodderomyces parapsilosis, NRLL Y-12696, 48 h
Aspergillus parasiticus = test: Antifungal activity against Aspergillus parasiticus NRRL 465 after 72 hrs by broth microdilution method; type: functional; conditions: NRRL 465, 72 h
Pichia kudriavzevii = test: Antifungal activity against Candida krusei NRLL Y-7179 after 48 hrs by broth microdilution method; type: functional; conditions: NRLL Y-7179, 48 h
Nakaseomyces glabratus = test: Antifungal activity against clinical isolate Candida glabrata after 48 hrs by broth microdilution method; type: functional
Candida albicans = test: Antifungal activity against Candida albicans ATCC-90028 after 48 hrs by broth microdilution method; type: functional; conditions: ATCC-90028, 48 h
Candida tropicalis = test: Antifungal activity against Candida tropicalis NRLL Y-12968 after 48 hrs by broth microdilution method; type: functional; conditions: NRLL Y-12968, 48 h
Aspergillus flavus = test: Antifungal activity against Aspergillus flavus NRRL-980 after 72 hrs by broth microdilution method; type: functional; conditions: NRRL-980, 72 h
[1] = Cytotoxicity against mouse NIH/3T3 cells after 24 hrs by XTT assay; type: cell-based; conditions: NIH3T3, 24 h
A549 = test: Cytotoxicity against human A549 cells after 24 hrs by XTT assay; type: functional, cell-based; conditions: A549, 24 h

Compound Fc1ccc(/C=N/NC(=S)Nc2cccc3ccccc23)cc1F has an MIC (Aspergillus niger) of 250 mg/L (≈ 732 µM), an MIC (Fusarium solani) of 250 mg/L (≈ 732 µM) and an MIC ([Candida] zeylanoides) of 250 mg/L (≈ 732 µM). For the same compound, the MIC (Candida parapsilosis) was 250 mg/L (≈ 732 µM), the MIC (Aspergillus parasiticus) was 250 mg/L (≈ 732 µM) and the MIC (Pichia kudriavzevii) was 250 mg/L (≈ 732 µM). The MIC (Nakaseomyces glabratus) was 250 mg/L (≈ 732 µM), the MIC (Candida albicans) was 250 mg/L (≈ 732 µM) and the MIC (Candida tropicalis) was 250 mg/L (≈ 732 µM). For the same compound, the MIC (Aspergillus flavus) was 250 mg/L (≈ 732 µM), the IC50 [1] was over 500 mg/L and the IC50 (A549) was 125 mg/L (≈ 366 µM).

For Fc1ccc(/C=N/NC(=S)Nc2cccc3ccccc23)c(F)c1, the MIC (Aspergillus niger) was 250 mg/L (≈ 732 µM), the MIC (Fusarium solani) was 250 mg/L (≈ 732 µM) and the MIC ([Candida] zeylanoides) was 250 mg/L (≈ 732 µM). For the same compound, the MIC (Candida parapsilosis) was 250 mg/L (≈ 732 µM), the MIC (Aspergillus parasiticus) was 250 mg/L (≈ 732 µM) and the MIC (Pichia kudriavzevii) was 250 mg/L (≈ 732 µM). The MIC (Nakaseomyces glabratus) was 250 mg/L (≈ 732 µM), the MIC (Candida albicans) was 250 mg/L (≈ 732 µM) and the MIC (Candida tropicalis) was 250 mg/L (≈ 732 µM). For the same compound, the MIC (Aspergillus flavus) was 250 mg/L (≈ 732 µM), the IC50 [1] was over 500 mg/L and the IC50 (A549) was 31.2 mg/L (≈ 91.5 µM).

With Fc1cc(F)cc(/C=N/NC(=S)Nc2cccc3ccccc23)c1 the MIC (Aspergillus niger) was 250 mg/L (≈ 732 µM), the MIC (Fusarium solani) was 250 mg/L (≈ 732 µM) and the MIC ([Candida] zeylanoides) was 250 mg/L (≈ 732 µM). For the same compound, the MIC (Candida parapsilosis) was 250 mg/L (≈ 732 µM), the MIC (Aspergillus parasiticus) was 250 mg/L (≈ 732 µM) and the MIC (Pichia kudriavzevii) was 250 mg/L (≈ 732 µM). It also gave an MIC (Nakaseomyces glabratus) of 250 mg/L (≈ 732 µM), an MIC (Candida albicans) of 250 mg/L (≈ 732 µM) and an MIC (Candida tropicalis) of 250 mg/L (≈ 732 µM). For the same compound, the MIC (Aspergillus flavus) was 250 mg/L (≈ 732 µM), the IC50 [1] was over 500 mg/L and the IC50 (A549) was 500 mg/L (≈ 1460 µM).

In the case of Fc1cc(F)c(/C=N/NC(=S)Nc2cccc3ccccc23)c(F)c1, the MIC (Aspergillus niger) is reported as 250 mg/L (≈ 696 µM), the MIC (Fusarium solani) is reported as 250 mg/L (≈ 696 µM) and the MIC ([Candida] zeylanoides) is reported as 250 mg/L (≈ 696 µM). The MIC (Candida parapsilosis) was 250 mg/L (≈ 696 µM), the MIC (Aspergillus parasiticus) was 250 mg/L (≈ 696 µM) and the MIC (Pichia kudriavzevii) was 250 mg/L (≈ 696 µM). The MIC (Nakaseomyces glabratus) was 250 mg/L (≈ 696 µM), the MIC (Candida albicans) was 250 mg/L (≈ 696 µM) and the MIC (Candida tropicalis) was 250 mg/L (≈ 696 µM). For the same compound, the MIC (Aspergillus flavus) was 250 mg/L (≈ 696 µM), the IC50 [1] was over 500 mg/L and the IC50 (A549) was over 500 mg/L.

For Fc1cccc(Cl)c1/C=N/NC(=S)Nc1cccc2ccccc12, the MIC (Aspergillus niger) was 250 mg/L (≈ 699 µM), the MIC (Fusarium solani) was 250 mg/L (≈ 699 µM) and the MIC ([Candida] zeylanoides) was 250 mg/L (≈ 699 µM). The MIC (Candida parapsilosis) was 250 mg/L (≈ 699 µM), the MIC (Aspergillus parasiticus) was 250 mg/L (≈ 699 µM) and the MIC (Pichia kudriavzevii) was 250 mg/L (≈ 699 µM). The MIC (Nakaseomyces glabratus) was 250 mg/L (≈ 699 µM), the MIC (Candida albicans) was 250 mg/L (≈ 699 µM) and the MIC (Candida tropicalis) was 250 mg/L (≈ 699 µM). The MIC (Aspergillus flavus) was 250 mg/L (≈ 699 µM), the IC50 [1] was over 500 mg/L and the IC50 (A549) was 125 mg/L (≈ 349 µM).

With Fc1ccc(/C=N/NC(=S)Nc2cccc3ccccc23)cc1Cl the MIC (Aspergillus niger) was 250 mg/L (≈ 699 µM), the MIC (Fusarium solani) was 250 mg/L (≈ 699 µM) and the MIC ([Candida] zeylanoides) was 250 mg/L (≈ 699 µM). It also gave an MIC (Candida parapsilosis) of 250 mg/L (≈ 699 µM), an MIC (Aspergillus parasiticus) of 250 mg/L (≈ 699 µM) and an MIC (Pichia kudriavzevii) of 250 mg/L (≈ 699 µM). For the same compound, the MIC (Nakaseomyces glabratus) was 250 mg/L (≈ 699 µM), the MIC (Candida albicans) was 250 mg/L (≈ 699 µM) and the MIC (Candida tropicalis) was 250 mg/L (≈ 699 µM). It also gave an MIC (Aspergillus flavus) of 250 mg/L (≈ 699 µM), an IC50 [1] of 500 mg/L (≈ 1400 µM) and an IC50 (A549) of 51.3 mg/L (≈ 143 µM).

For Fc1ccc(Oc2ccc(/C=N/NC(=S)Nc3cccc4ccccc34)cc2)cc1, the MIC (Aspergillus niger) was 250 mg/L (≈ 602 µM), the MIC (Fusarium solani) was 250 mg/L (≈ 602 µM) and the MIC ([Candida] zeylanoides) was 250 mg/L (≈ 602 µM). For the same compound, the MIC (Candida parapsilosis) was 250 mg/L (≈ 602 µM), the MIC (Aspergillus parasiticus) was 250 mg/L (≈ 602 µM) and the MIC (Pichia kudriavzevii) was 250 mg/L (≈ 602 µM). For the same compound, the MIC (Nakaseomyces glabratus) was 250 mg/L (≈ 602 µM), the MIC (Candida albicans) was 250 mg/L (≈ 602 µM) and the MIC (Candida tropicalis) was 250 mg/L (≈ 602 µM). It also gave an MIC (Aspergillus flavus) of 250 mg/L (≈ 602 µM), an IC50 [1] of over 500 mg/L and an IC50 (A549) of 62.5 mg/L (≈ 150 µM).

In the case of Fc1cccc(F)c1/C=N/NC(=S)Nc1cccc2ccccc12, the MIC (Aspergillus niger) is reported as 250 mg/L (≈ 732 µM), the MIC (Fusarium solani) is reported as 250 mg/L (≈ 732 µM) and the MIC ([Candida] zeylanoides) is reported as 250 mg/L (≈ 732 µM). The MIC (Candida parapsilosis) was 250 mg/L (≈ 732 µM), the MIC (Aspergillus parasiticus) was 250 mg/L (≈ 732 µM) and the MIC (Pichia kudriavzevii) was 250 mg/L (≈ 732 µM). The MIC (Nakaseomyces glabratus) was 250 mg/L (≈ 732 µM), the MIC (Candida albicans) was 250 mg/L (≈ 732 µM) and the MIC (Candida tropicalis) was 250 mg/L (≈ 732 µM). The MIC (Aspergillus flavus) was 250 mg/L (≈ 732 µM), the IC50 [1] was 31.2 mg/L (≈ 91.5 µM) and the IC50 (A549) was 500 mg/L (≈ 1460 µM).

For CC(=O)N1CCN(c2ccc(OCC3COC(Cn4ccnc4)(c4ccc(Cl)cc4Cl)O3)cc2)CC1 (stereo unspecified) [KETOCONAZOLE], the MIC (Aspergillus niger) was 31.2 mg/L (≈ 58.8 µM), the MIC (Fusarium solani) was 62.5 mg/L (≈ 118 µM) and the MIC ([Candida] zeylanoides) was 250 mg/L (≈ 470 µM). The MIC (Candida parapsilosis) was 15.6 mg/L (≈ 29.4 µM), the MIC (Aspergillus parasiticus) was 7.81 mg/L (≈ 14.7 µM) and the MIC (Pichia kudriavzevii) was 125 mg/L (≈ 235 µM). The MIC (Nakaseomyces glabratus) was 62.5 mg/L (≈ 118 µM), the MIC (Candida albicans) was 62.5 mg/L (≈ 118 µM) and the MIC (Candida tropicalis) was 125 mg/L (≈ 235 µM). It also gave an MIC (Aspergillus flavus) of 15.6 mg/L (≈ 29.4 µM).

— ChEMBL document CHEMBL3758081, “Synthesis and biological evaluation of new naphthalene substituted thiosemicarbazone derivatives as potent antifungal and anticancer agents” (Eur J Med Chem, 2016)
